Results reported in patent EP4772510A2, “BENZAZEPINONE COMPOUND AND USE THEREOF” (HANGZHOU BIO-SINCERITY PHARMA-TECHCO., LTD., priority 2023, dated 2025).

What was measured:
[1] = system: U937 cells; assay: Inhibition of TNF-α-induced necroptosis of U937 cells (CCK-8 assay); format: cell-based, human; conditions: Homo sapiens, U-937, TNF-α 20 ng/mL + BV6 2 µM + Z-VAD-FMK 20 µM, 18 h
Text: Example 56: Inhibition of TNF-α-Induced Necroptosis of U937 Cells by Compounds
• 1. Experimental reagents: RPMI-1640 culture medium, fetal bovine serum, penicillin-streptomycin, TNF-α (MCE, HY-P7058), BV6 (MCE, HY-16701), Z-VAD-FMK (MCE, HY-16658B), and CCK-8 (Dalian Meilun Biotech Co., Ltd., MA0218). • 2. Experimental instruments: medical low-temperature freezer (Thermo Fisher scientific, 902-ULTS), electrically heated thermostatic water bath (Shanghai Bluepard Instruments Co., Ltd., CD-420), low-speed centrifuge (ANHUI USTC Zonkia Scientific Instruments Co., Ltd, SC-3616), carbon dioxide incubator (Shanghai Bluepard Instruments Co., Ltd., BPN-150CH(UV)), inverted microscope (Olympus, CKX53), multi-functional microplate reader (Thermo Tecan, SPARK), class-II biosafety cabinet (AIRTECH, BSC-1304IIA2), and desktop cell counter (Thermo Fisher Scientific, Countess II). • 3. Cell culturing: U937 cells (human histiocytic lymphoma cells) were cultured in an RPMI-1640 culture solution containing 10% fetal bovine serum and 1% penicillin-streptomycin solution in a 5% CO2 incubator at 37 °C and a saturated humidity. The cell culture flask was vertically placed in the incubator. A T25 culture flask was used as an example, the culture solution in the flask was 6-8 mL, and culture medium changes and cell passaging were performed 3-4 times a week. • 4. […] The culture medium was taken out from the freezer and transferred to the water bath for pre-heating. An appropriate amount of culture medium was then taken for use. • (2) The cell suspension was transferred to a 15 mL sterile centrifuge tube and centrifuged at 850 rpm for 4 min to collect U937 cells. • (3) The supernatant was carefully discarded, and an appropriate amount of culture medium was added. The mixture was gently pipetted using a pipette to homogenize the cells and thus prepare a single-cell suspension, and the cells were counted. • (4) The cells were diluted to 4 × 10^5/mL and seeded into a 96-well plate at 90 µL/well, such that the cell density in the 96-well plate was 3.6 × 10 ^4 cells/well. The cells were incubated in a 5% CO 2 incubator at 37 °C and a saturated humidity for 6 h, followed by the addition of compounds. • 4.2 Dilution and addition of compounds: • (1) TNF-α was dissolved in PBS to obtain a 100 µg/mL stock solution and aliquoted; Z-VAD-FMK was dissolved in DMSO to obtain a 10 mM stock solution and aliquoted; BV6 was dissolved in DMSO to obtain a 10 mM stock solution and aliquoted; GSK2982772 was dissolved in DMSO to obtain a 10 mM stock solution and aliquoted. One aliquot of each stock solution was stored at -20 °C for immediate use, while the remaining aliquots were stored at - 80 °C and used within their shelf life. • (2) RPMI-1640 culture medium containing TNF-α, BV6, and Z-VAD-FMK was prepared (5 µL/per well), such that the final concentrations of TNF-α, BV6, and Z-VAD-FMK were 20 ng/mL, 2 µM, and 20 µM, respectively. • (3) Each target compound was three-fold diluted with a culture medium to 8 concentration gradients, with each concentration set in duplicate (5 µL/well). The final concentrations of each target compound were 1000.00/333.33/111.11/37.04/12.35/4.12/1.37/0.46 nM. • (4) The 96-well plate containing 90 µL of cell suspension was taken out from an incubator, and a positive control group, test compound groups, and a DMSO (5‰) control group were set. 5 µL of RPMI-1640 culture solution containing TNF-α, BV6, and Z-VAD-FMK and 5 µL of culture solution containing the test compound were added to the positive control group and the test compound groups. After compound addition, the mixtures were cultured for 18 h, followed by the CCK-8 assay. • (5) The 96-well plate was taken out, and the CCK-8 reagent was carefully added at 10 µL/well. The mixtures were incubated at 37 °C for 2-4 h, and the absorbance value was measured at a wavelength of 450 nm. • 5. Evaluation of inhibitory activity of compounds on TNF-α-induced necroptosis of U937 [formula] […]

[2] = system: HT-29 cells; assay: Inhibition of TNF-α-induced necroptosis of HT-29 cells (SRB method); format: cell-based, human; conditions: Homo sapiens, HT-29, TNF-α 20 ng/mL + BV6 2 µM + Z-VAD-FMK 20 µM, 18 h
Text: Example 57: Inhibition of TNF-α-Induced Necroptosis of HT-29 Cells by Compounds
• 1. Experimental reagents: McCOY's 5A culture medium, fetal bovine serum, penicillin-streptomycin, trypsin, PBS, TNF-α (MCE, HY-P7058), BV6 (MCE, HY-16701), Z-VAD-FMK (MCE, HY-16658B), SRB kit (Shanghai BestBio Biotechnology Co., Ltd., BB-4208-500T). • 2. Experimental instruments: medical low-temperature freezer (Thermo Fisher scientific, 902-ULTS), electrically heated thermostatic water bath (Shanghai Bluepard Instruments Co., Ltd., CD-420), low-speed centrifuge (ANHUI USTC Zonkia Scientific Instruments Co., Ltd, SC-3616), carbon dioxide incubator (Shanghai Bluepard Instruments Co., Ltd., BPN-150CH(UV)), inverted microscope (Olympus, CKX53), multi-functional microplate reader (Thermo Tecan, SPARK), class-II biosafety cabinet (AIRTECH, BSC-1304IIA2), and desktop cell counter (Thermo Fisher Scientific, Countess II). • 3. Cell culturing: HT-29 cells (human colon cancer cells) were cultured in a McCOY's 5A culture solution containing 10% fetal bovine serum and 1% penicillin-streptomycin solution in a 5% CO 2 at 37 °C and a saturated humidity, and culture medium changes and cell passaging were performed 3-4 times a week. • 4. […] The culture medium, trypsin, etc., were taken out from the freezer and transferred to the water bath for pre-heating. An appropriate amount of these substances was then taken for use. • (2) The old culture medium in the flask was aspirated using a sterile pipette and discarded, and the cells were washed 3 times with PBS. 1 mL of trypsin (25 cm^2 cell culture flask) was added into the flask, and the flask was gently shaken to allow the trypsin to cover all the cell surfaces. Digestion was performed in an incubator at 37 °C. After 2 min of digestion, the flask was placed under a microscope for observation. […] The mixture was gently pipetted using a pipette to homogenize the cells and thus prepare a single-cell suspension, and the cells were counted. • (5) The cells were diluted to 3 × 10^5/mL and seeded into a 96-well plate at 100 µL/well, such that there were 3 × 10^4 cells per well in the 96-well plate. The cells were incubated in a 5% CO2 incubator at 37 °C and a saturated humidity for 24 h, followed by the addition of compounds. • 4.2 Dilution and addition of compounds: • (1) TNF-α was dissolved in PBS to obtain a 100 µg/mL stock solution and aliquoted; Z-VAD-FMK was dissolved in DMSO to obtain a 10 mM stock solution and aliquoted; BV6 was dissolved in DMSO to obtain a 10 mM stock solution and aliquoted; GSK2982772 was dissolved in DMSO to obtain a 10 mM stock solution and aliquoted. One aliquot of each stock solution was stored at -20 °C for immediate use, while the remaining aliquots were stored at - 80 °C and used within their shelf life. • (2) McCOY's 5A culture solution containing TNF-α, BV6, and Z-VAD-FMK was prepared. For the positive control group and the test compound groups, the McCOY's 5A culture solution was added at 90 µL/well, and 10 µL of the culture medium containing the test compound was also added, thus making the final concentrations of TNF-α, BV6, and Z-VAD-FMK be 20 ng/mL, 2 µM, and 20 µM, respectively. For the DMSO (5‰) control group, 90 µL of the McCOY's 5A complete culture solution was added, and then 10 µL of DMSO was added, thus making the final concentration 5‰. • (3) Each target compound was three-fold diluted with a culture medium to 8 concentration gradients, with each concentration set in duplicate (10 µL/well). The final concentrations of each target compound were 1000.00/333.33/111.11/37.04/12.35/4.12/1.37/0.46 nM. • (4) The 96-well plate cultured for 24 h was taken out from the incubator, and the culture medium in the 96-well plate was carefully aspirated and discarded. A positive control group, test compound groups, and a DMSO (5‰) control group were set, and 10 µL of the corresponding compound was added to each group. […]

O=C(NC1CCc2cc(C#Cc3ccncc3)cc3c2N(CC3)C1=O)c1nnc(Cc2c(Cl)cccc2Cl)[nH]1 (stereo not drawn) [Compound I-13, 5-(2,6-dichlorobenzyl)-N-(4-oxo-9-(pyridin-4-ylethynyl)-1,2,3,4,6,7-hexahydroazepino[3,2,1-hi]indol-3-yl)-4H-1,2,4-triazole-3-carboxamide]
EC50 [1]: > 200 nM
EC50 [2]: > 200 nM

Cn1cc(C#Cc2cc3c4c(c2)CCN4C(=O)C(NC(=O)c2cccc(Oc4ccccc4)n2)CC3)cn1 (stereo not drawn) [Compound V-1, N-(9-((1-methyl-1H-pyrazol-4-yl)ethynyl)-4-oxo-1,2,3,4,6,7-hexahydroazepino[3,2,1-hi]indol-3-yl)-6-phenoxypicolinamide]
EC50 [1]: > 200 nM
EC50 [2]: > 200 nM

Cn1cc(C#Cc2cc3c4c(c2)CCN4C(=O)C(NC(=O)c2ccc(Oc4ccccc4)cn2)CC3)cn1 (stereo not drawn) [Compound V-2, N-(9-((1-methyl-1H-pyrazol-4-yl)ethynyl)-4-oxo-1,2,3,4,6,7-hexahydroazepino[3,2,1-hi]indol-3-yl)-5-phenoxypicolinamide]
EC50 [1]: > 200 nM
EC50 [2]: > 200 nM

O=C(NC1CCc2ccc(C#Cc3ccccn3)c3c2N(CC3)C1=O)c1nnc(Cc2ccccc2)[nH]1 (stereo not drawn) [II-1, 5-benzyl-N-(4-oxo-8-(pyridin-2-ylethynyl)-1,2,3,4,6,7-hexahydroazepino[3,2,1-hi]indol-3-yl)-4H-1,2,4-triazole-3-carboxamide]
EC50 [1]: 10 to 100 nM
EC50 [2]: 10 to 100 nM

O=C(NC1CCc2ccc(C#Cc3cccnc3)c3c2N(CC3)C1=O)c1nnc(Cc2ccccc2)[nH]1 (stereo not drawn) [II-2, 5-benzyl-N-(4-oxo-8-(pyridin-3-ylethynyl)-1,2,3,4,6,7-hexahydroazepino[3,2,1-hi]indol-3-yl)-4H-1,2,4-triazole-3-carboxamide]
EC50 [1]: 100 to 200 nM
EC50 [2]: 10 to 100 nM

O=C(NC1CCc2ccc(C#CC3CC3)c3c2N(CC3)C1=O)c1nnc(Cc2ccccc2)[nH]1 (stereo not drawn) [II-3, 5-benzyl-N-(8-(cyclopropylethynyl)-4-oxo-1,2,3,4,6,7-hexahydroazepino[3,2,1-hi]indol-3-yl)-4H-1,2,4-triazole-3-carboxamide]
EC50 [1]: > 200 nM
EC50 [2]: 100 to 200 nM

O=C(NC1CCc2ccc(C#Cc3ccncc3)c3c2N(CC3)C1=O)c1nnc(Cc2ccccc2)[nH]1 (stereo not drawn) [II-4, 5-benzyl-N-(4-oxo-8-(pyridin-4-ylethynyl)-1,2,3,4,6,7-hexahydroazepino[3,2,1-hi]indol-3-yl)-4H-1,2,4-triazole-3-carboxamide]
EC50 [1]: 10 to 100 nM
EC50 [2]: 100 to 200 nM

O=C(NC1CCc2cc(C#Cc3ccncc3)cc3c2N(CC3)C1=O)c1ncn(Cc2c(F)cccc2F)n1 (stereo not drawn) [III-2, 1-(2,6-difluorobenzyl)-N-(4-oxo-9-(pyridin-4-ylethynyl)-1,2,3,4,6,7-hexahydroazepino[3,2,1-hi]indol-3-yl)-1H-1,2,4-triazole-3-carboxamide]
EC50 [1]: < 5 nM
EC50 [2]: 10 to 100 nM

O=C(NC1CCc2cc(C#Cc3ccncc3)cc3c2N(CC3)C1=O)c1ncn(Cc2ccccc2)n1 (stereo not drawn) [III-3, 1-benzyl-N-(4-oxo-9-(pyridin-4-ylethynyl)-1,2,3,4,6,7-hexahydroazepino[3,2,1-hi]indol-3-yl)-1H-1,2,4-triazole-3-carboxamide]
EC50 [1]: 10 to 100 nM
EC50 [2]: 10 to 100 nM

CC(C)(O)C#Cc1cc2c3c(c1)CCN3C(=O)C(NC(=O)c1ncn(Cc3c(F)cccc3F)n1)CC2 (stereo not drawn) [III-4, 1-(2,6-difluorobenzyl)-N-(9-(3-hydroxy-3-methylbut-1-yn-1-yl)-4-oxo-1,2,3,4,6,7-hexahydroazepino[3,2,1-hi]indol-3-yl)-1H-1,2,4-triazole-3-carboxamide]
EC50 [1]: < 5 nM
EC50 [2]: < 5 nM

COCC#Cc1cc2c3c(c1)CCN3C(=O)C(NC(=O)c1ncn(Cc3c(F)cccc3F)n1)CC2 (stereo not drawn) [III-5, 1-(2,6-difluorobenzyl)-N-(9-(3-methoxyprop-1-yn-1-yl)-4-oxo-1,2,3,4,6,7-hexahydroazepino[3,2,1-hi]indol-3-yl)-1H-1,2,4-triazole-3-carboxamide]
EC50 [1]: < 5 nM
EC50 [2]: < 5 nM

O=C(NC1CCc2cc(C#CC3CC3)cc3c2N(CC3)C1=O)c1ncn(Cc2c(F)cccc2F)n1 (stereo not drawn) [III-6, N-(9-(cyclopropylethynyl)-4-oxo-1,2,3,4,6,7-hexahydroazepino[3,2,1-hi]indol-3-yl)-1-(2,6-difluorobenzyl)-1H-1,2,4-triazole-3-carboxamide]
EC50 [1]: 10 to 100 nM
EC50 [2]: 5 to 10 nM
